These results are taken from ChEMBL document CHEMBL1201862, “PubChem BioAssay data set” (2004).

Holding throughout (assay): growth of human tumour cells (NCI), 48 h
Assay [1] deals with HCT-116.
The subject of assay [2] is SNB-75.
Assay [3] concerns HCC 2998.
Assay [4] deals with EKVX.
Assay [5] relates to UACC-257.
Assay [6] has as its system NCI-H23.
For assay [7], the system named is NCI/ADR-RES.
Assay [8] relates to MDA-MB-435.
Assay [9] has as its system PC-3.
The subject of assay [10] is MCF7.
Assay [11] has as its system HOP-92.
In assay [12] the test system is NCI-H522.
Assay [13] concerns COLO 205.
Assay [14] concerns NCI-H460.
For assay [15], the system named is T47D.
Assay [16] relates to SK-MEL-2.
Assay [17] deals with LOX IMVI.
Assay [18] deals with RPMI-8226.
Assay [19] relates to HL-60.

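Each compound was tested at five concentrations against cells in 96-well plates for 48 hours. GI50: concentration for 50% inhibition of growth.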 Calls of active or inactive are those of the source. Cut-off read from the data, not from the text of the source: active = GI50 up to about 1.1 µM and inactive = higher.

Take `O=C(/C=C/c1ccc(O)c(O)c1)OCCc1ccc2ccccc2c1`: the GI50 in assay [1] is 5.24 µM (inactive); in [2], 1.87 µM (inactive); in assay [3], 17 µM (inactive); in assay [4], 14.6 µM (inactive); in [5], 11 µM (inactive); in assay [6] it was 3.42 µM (inactive). The GI50 in assay [7] is 4.08 µM (inactive); in assay [8], 2.54 µM (inactive); in [9], 7.55 µM (inactive); in assay [10], 2.74 µM (inactive); in assay [11], 6.35 µM (inactive); in assay [12], 2.38 µM (inactive). Besides, the GI50 in [13] was 4.59 µM (inactive); in [14] it was 7.05 µM (inactive); in assay [15], 4.67 µM (inactive); in assay [16], 1.29 µM (inactive); in [17], 6.98 µM (inactive).
With `O=C(OCc1ccccc1)N1CCNCCN(C(=O)OCc2ccccc2)CCNCC1`, the GI50 in [1] is 16.2 µM (inactive); in [2], 25.6 µM (inactive); in assay [18] it was 20.2 µM (inactive); in [19] it was 24.3 µM (inactive); in assay [4] it was 28 µM (inactive); in assay [5], 21.4 µM (inactive). In addition, the GI50 is 75.7 µM (inactive) in assay [7]; 24 µM (inactive) in assay [8]; 25.9 µM (inactive) in [9]; 17.7 µM (inactive) in assay [10]; 21.1 µM (inactive) in assay [11]; 16.3 µM (inactive) in [12]. Also, the GI50 was 21.6 µM (inactive) in assay [14], 0.254 µM (active) in assay [15], 20.1 µM (inactive) in assay [16] and 13.2 µM (inactive) in assay [17].
With `Cc1cn([C@H]2C[C@@H](N3C(=O)c4ccccc4C3=O)[C@@H](CO[Si](C)(C)C(C)(C)C)O2)c(=O)[nH]c1=O`, the GI50 in assay [1] is 49.2 µM (inactive); in [2], 24 µM (inactive); in assay [3] it was > 100 µM (inactive); in assay [18] it was > 100 µM (inactive); in assay [4], 75.2 µM (inactive); in assay [5], > 100 µM (inactive). The GI50 was 31.6 µM (inactive) in [6]; 43.3 µM (inactive) in [7]; > 100 µM (inactive) in assay [8]; > 100 µM (inactive) in [9]; 46 µM (inactive) in [10]; 48.6 µM (inactive) in assay [11]. Further, the GI50 was 50.4 µM (inactive) in assay [12]; > 100 µM (inactive) in assay [13]; > 100 µM (inactive) in assay [14]; > 100 µM (inactive) in assay [15]; 46.8 µM (inactive) in [16]; > 100 µM (inactive) in [17].
Turning to `CN1C2CC(=O)CC1[C@@H]1OC(c3ccccc3)O[C@H]21` (stereo not given in full), the GI50 in assay [1], in [2], in [3], in assay [18], in assay [19] and in assay [4] was > 100 µM (inactive) each time. The GI50 in [5], in [6], in [7], in assay [8], in assay [9] and in assay [10] was > 100 µM (inactive) throughout. Besides, the GI50 in assay [12], in [13], in [14], in assay [15], in [16] and in assay [17] was > 100 µM (inactive) each time.
Turning to `O=Cc1cccc2c1Oc1c(cccc1C(=O)O)S2`, the GI50 in assay [1] is 28.2 µM (inactive); in assay [2], 78.7 µM (inactive); in assay [3] it was 57.4 µM (inactive); in assay [18], 25.7 µM (inactive); in assay [4] it was 70.1 µM (inactive); in [5], > 100 µM (inactive). Besides, the GI50 was > 100 µM (inactive) in [6]; 36 µM (inactive) in [7]; > 100 µM (inactive) in assay [8]; > 100 µM (inactive) in [9]; 89.3 µM (inactive) in assay [10]; 70.8 µM (inactive) in assay [11]. Also, the GI50 in [12] is 81.5 µM (inactive); in [13], 23.2 µM (inactive); in assay [14], 50.4 µM (inactive); in assay [15], 83 µM (inactive); in assay [16], > 100 µM (inactive); in assay [17] it was 45.7 µM (inactive).
In the case of `CSc1c(C)[n+]([O-])c2cc(Cl)c(Cl)cc2[n+]1[O-]`, the GI50 in assay [1] is 16.4 µM (inactive); in assay [2] it was > 47.1 µM (inactive); in assay [3], 18.8 µM (inactive); in assay [18], 9.73 µM (inactive); in assay [4], 16.3 µM (inactive); in assay [5] it was 17.9 µM (inactive). The GI50 in assay [6] is 16.2 µM (inactive); in assay [7], 17.8 µM (inactive); in assay [8], 18.5 µM (inactive); in assay [9], 18.6 µM (inactive); in assay [10], 19 µM (inactive); in [11] it was 16.2 µM (inactive). Besides, the GI50 is 12.2 µM (inactive) in assay [12]; 15.5 µM (inactive) in assay [13]; 37.9 µM (inactive) in [14]; 20.8 µM (inactive) in [15]; 19.9 µM (inactive) in assay [16]; 17.9 µM (inactive) in assay [17].
`CC(=O)OCC1OC(SC2=N/C(=C\c3ccc(Br)s3)C(=O)N2CN2CCOCC2)C(OC(C)=O)C(OC(C)=O)C1OC(C)=O` (stereo not given): the GI50 in assay [1] is 13.9 µM (inactive); in [2], 25.4 µM (inactive); in [3], 19.8 µM (inactive); in assay [18], 5.97 µM (inactive); in assay [19], 3.77 µM (inactive); in [4] it was 8.22 µM (inactive). Also, the GI50 was 16.6 µM (inactive) in assay [5]; 12.7 µM (inactive) in [6]; 20.4 µM (inactive) in assay [7]; 23.8 µM (inactive) in assay [8]; 23 µM (inactive) in assay [9]; 15.4 µM (inactive) in assay [10]. Further, the GI50 in [12] is 6.87 µM (inactive); in [13], 18.8 µM (inactive); in [14] it was 18.6 µM (inactive); in [15], 27.9 µM (inactive); in assay [16], 0.383 µM (active); in assay [17] it was 12.9 µM (inactive).
Take `COc1ccc(-n2c(=O)n(C)c(=O)n2-c2ccc(OC)cc2)cc1`: the GI50 in assay [1] is 98.6 µM (inactive); in assay [2], 56.6 µM (inactive); in [18] it was > 100 µM (inactive); in [19], > 100 µM (inactive); in assay [4], > 100 µM (inactive); in assay [5], > 100 µM (inactive). Further, the GI50 in [6], in assay [7], in [8], in assay [9], in assay [10] and in assay [11] was > 100 µM (inactive) throughout. Moreover, the GI50 in [13] is > 100 µM (inactive); in [14] it was > 100 µM (inactive); in [15], > 100 µM (inactive); in assay [16], > 100 µM (inactive); in assay [17], 59.2 µM (inactive).
In the case of `COc1ccc(/N=N/C(=N\c2ccccc2)c2ccc(N(CCC#N)CCC#N)cc2)cc1`, the GI50 in [1] was 43.4 µM (inactive); in [2], 38.3 µM (inactive); in assay [3] it was 33.2 µM (inactive); in assay [18] it was 41 µM (inactive); in assay [4], 27.4 µM (inactive); in [5], 23.8 µM (inactive). The GI50 in assay [6] was 51.4 µM (inactive); in [7], 95.3 µM (inactive); in assay [8] it was 56.4 µM (inactive); in assay [9], 40.6 µM (inactive); in assay [10] it was 22.5 µM (inactive); in [11] it was > 100 µM (inactive). Further, the GI50 is 22.7 µM (inactive) in assay [12]; 14.1 µM (inactive) in [13]; 36.5 µM (inactive) in assay [14]; 33.5 µM (inactive) in assay [15]; 30.3 µM (inactive) in assay [16].
On to `Cc1ccc2nc(Cl)c(/C=N/N3C(=O)/C(=C/c4ccccc4S)N=C3c3ccccc3)cc2c1`, for which the GI50 was 30.1 µM (inactive) in assay [1]; 22.1 µM (inactive) in assay [2]; 45.3 µM (inactive) in [3]; 21.4 µM (inactive) in assay [18]; 15.5 µM (inactive) in assay [19]; 59.7 µM (inactive) in assay [4]. Also, the GI50 in assay [5] is 68.5 µM (inactive); in assay [7], 22.9 µM (inactive); in assay [8], 12.6 µM (inactive); in assay [9], 38.3 µM (inactive); in assay [10], 26.9 µM (inactive); in [11], 73.6 µM (inactive). Moreover, the GI50 was 28.2 µM (inactive) in assay [13]; 31.4 µM (inactive) in assay [14]; 48.5 µM (inactive) in assay [15]; 20.4 µM (inactive) in [16]; 34.8 µM (inactive) in assay [17].
Turning to `COc1ccc(C2C3CCc4ccccc4C3=NN2S(=O)(=O)c2ccc(/C=C/C(=O)O)cc2)cc1` (stereo not given), the GI50 in assay [1] is 3.53 µM (inactive); in [18], 3.07 µM (inactive); in assay [19], 3.07 µM (inactive); in [4] it was 8.99 µM (inactive); in [6] it was < 0.01 µM (active); in [7] it was 1.75 µM (inactive). Also, the GI50 was 1.07 µM (active) in assay [8]; 3.98 µM (inactive) in assay [9]; 2.1 µM (inactive) in [10]; 11.6 µM (inactive) in assay [11]; 2.31 µM (inactive) in assay [12]; 2 µM (inactive) in assay [13]. Also, the GI50 in [14] is 3.52 µM (inactive); in assay [15] it was 7.06 µM (inactive); in [16], 2.71 µM (inactive); in assay [17], 4.73 µM (inactive).
